Experimental data published in patent publication US11510964B2, “Macrocyclic peptides to decrease c-Myc protein levels and reduce cancer cell growth” (University of Kansas, priority 2017, dated 2022).
Non-standard residues stand in square brackets, D forms with d. Residues, ends and D or L forms follow the SMILES beside them.

How the values were obtained:
[1] = mice, dose of 60 mg/kg; cited from earlier work
[2] = tested on: PC-3 cells; assay type: cell-based, human; conditions: 48 h, read-out: IC50, cell growth
Description: Human prostate cancer PC-3 cells were cultured and maintained in EMEM (ATCC), non-prostate HEK (human embryonic kidney) cells were cultured in DMEM, human prostate cancer DU145, LNCaP, 22Rv1 cells were cultured in RPMI 1640 (ATCC), and normal BPH-1 prostate cells and prostate cancer C4-2 cell line were cultured in RPMI 1640 (ATCC), all containing 10% fetal bovine serum (Atlanta Biologicals) and 1% penicillin/streptomycin (Invitrogen). Cells were grown at 37° C. in humidified air with 5% CO2 and passaged every fourth to fifth day following trypsinization with trypsin/EDTA (Invitrogen).^16
PC-3, LNCaP, DU 145, 22Rv1, C4-2, BPH-1, and HEK cells were grown to a density of 2000 cells/well in 96 well plates and treated with [D-Trp]CJ-15,208 or other peptides for 24-72 h in duplicate. Media containing [D-Trp]CJ-15,208 was changed every 24 h. The proliferation of treated cells was determined using the cell proliferation reagent WST-1 (Roche) per the manufacturer's instructions and compared to […] control cells in 1% DMSO in media. After treatment with compound 10 μL of the reagent was added to the well in 100 μL culture media, and the cells incubated at 37° C. for 30 min. The absorbance of the media in each well was measured at […] using a plate reader (BioTek). The percentage cell proliferation was normalized to vehicle treated control cells calculated as: (mean absorbance of sample/mean absorbance of control cells)×100.^38
Each experiment was performed in triplicate unless otherwise stated in the figure legend. GraphPad Prism 5 was used to determine IC50 values. Data represent the mean value+/−SEM. Compound vs. vehicle treated cells in the cell cycle phase and apoptosis experiments (FIGS. 5-8) were compared using the student's t-test, with a two-tailed, unpaired method, using the Prism software. The effects of compound vs. vehicle treatment on protein levels (FIG. 10) were evaluated by one-way ANOVA with Dunnett's test for multiple comparisons.

[3] = cited from earlier work
[4] = tested on: c-Myc protein levels in PC-3 cells; assay: Western blot analysis of cellular c-Myc protein levels; assay type: cell-based, human
Description: Cells were seeded in 6 well plates at a density of 1×10^5 cells/well and grown to 75% confluence. Cells were treated with [D-Trp]CJ-15,208 at the indicated concentrations. Cells were then harvested as described above, and the cell pellets lysed in RIPA buffer consisting of 10 mM Tris HCl, pH 8.0, 150 mM NaCl, 1 mM EDTA, 1% Triton-X-100, 0.1% SDS, 1% sodium deoxycholate, and a protease inhibitor cocktail #P8340 (Sigma). Cell lysates were centrifuged at 13×1000 rpm for 15 min and the supernatants collected. The total protein concentration was measured in cell lysates using the standard Bradford assay. SDS gel electrophoresis was performed using 4-20% polyacrylamide gel (BioRad). Western blot analysis was performed using the following antibodies: i) c-Myc #5605 (rabbit monoclonal, 1:2000 dilution, (Cell Signaling Technologies)); actin #A2228 (mouse monoclonal, 1:5000 dilution (Sigma)), PP2A #610555 (mouse monoclonal 1:5000 dilution, BD Biosciences), p-PP2A #1155-1 (rabbit polyclonal, 1:5000 dilution (Epitomics)), Erk #9107 (mouse monoclonal, 1:2000 dilution (Cell Signaling Technologies) and p-Erk #4376 (rabbit monoclonal, 1:2000 (Cell Signaling Technologies)); Akt #2920 (mouse monoclonal, 1:2000 dilution (Cell Signaling Technologies)), p-Akt #4056 (rabbit monoclonal, 1:2000 (Cell Signaling Technologies)). The secondary antibodies, goat-anti-mouse #116-035-003 and goat-anti-rabbit #111-035-003, were obtained from Jackson ImmunoResearch Laboratory. Signal densities of the protein bands were determined using ImageJ software (NIH) and normalized to the internal loading control (actin).

[5] = mice, after systemic administration; cited from earlier work

O=C1N[C@@H](Cc2ccccc2)C(=O)N2CCC[C@@H]2C(=O)N[C@@H](Cc2ccccc2)C(=O)N[C@H]1Cc1c[nH]c2ccccc12 [CJ-15,208, cyclo[Phe-D-Pro-Phe-Trp]] (cyclo(FWF[dP]))
toxicity [1]: no evidence of toxicity | IC50 [2]: 10.1 ± 0.9 µM | activity after oral administration [3]: active after oral administration | decrease of cellular c-Myc protein levels ([4]; 50 μM (FIG. 1E lanes 4 and 5)): 5 fold | reduction of c-Myc protein levels ([4]; PC-3 cells, 10 μM, 48 h): approximately 50% | blood-brain barrier penetration [5]: appear to penetrate the blood-brain barrier

CC[C@H](C)[C@@H]1NC(=O)[C@H](CCCNC(=N)N)NC(=O)[C@@H](NC(=O)[C@H](Cc2ccccc2)NC(=O)CNC(=O)CNC(=O)[C@H](Cc2ccc(O)cc2)NCc2ccccc2)CC(=O)NC[C@@H](C(=O)N[C@@H](CCCNC(=N)N)C(=O)N2CCC[C@H]2C(=O)N[C@@H](CCCCN)C(N)=O)NC1=O [zyklophin, reference compound]
effect on cellular c-Myc protein levels ([4]; 10 μM (FIG. 1E lane 3)): not decreased

C=CCN1CC[C@]23c4c5ccc(O)c4O[C@H]2C(=O)CC[C@@]3(O)[C@H]1C5 [naloxone, reference compound]
effect on the decrease in c-Myc protein levels caused by [D-Trp]CJ-15,208 ([4]; PC-3 cells, 10 μM naloxone with 10 μM [D-Trp]CJ-15,208 (FIG. 1F lane 4 vs. lane 2)): did not alter the decrease | effect on c-Myc protein levels ([4]; PC-3 cells, 10 μM, 48 h (FIG. 1F lane 3)): no effect

dynorphin A-(1-13) (YGGFLRRIRPKP) [reference compound]
effect on cellular c-Myc protein levels ([4]; 1 μM (FIG. 1E lane 2)): not decreased
